Experimental findings from ChEMBL document CHEMBL1743341, “Cytochrome p450 enzymes mechanism based inhibitors: common sub-structures and reactivity” (Curr Drug Metab, 2005) are described below.

Data set [1] deals with T1, Cytochrome P450 2B1 (Rattus norvegicus, UniProt P00176).
T1 sequence (P00176 whole entry): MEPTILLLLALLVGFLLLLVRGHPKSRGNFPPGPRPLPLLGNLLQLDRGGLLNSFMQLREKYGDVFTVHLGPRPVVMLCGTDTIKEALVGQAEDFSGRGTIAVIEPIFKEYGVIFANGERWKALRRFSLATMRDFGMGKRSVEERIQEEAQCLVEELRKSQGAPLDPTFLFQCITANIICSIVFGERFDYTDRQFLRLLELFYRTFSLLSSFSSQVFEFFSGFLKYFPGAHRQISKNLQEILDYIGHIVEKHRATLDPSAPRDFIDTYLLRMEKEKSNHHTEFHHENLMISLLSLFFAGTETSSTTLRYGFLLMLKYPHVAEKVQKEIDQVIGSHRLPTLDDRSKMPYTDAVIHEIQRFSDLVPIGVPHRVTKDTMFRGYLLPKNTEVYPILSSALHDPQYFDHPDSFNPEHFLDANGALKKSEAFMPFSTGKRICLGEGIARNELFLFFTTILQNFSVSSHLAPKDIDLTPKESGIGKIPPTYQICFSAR
Briefly: Mechanism based inhibition of rat cytochrome P450 CYP2B1 partition ratio. The format is ADME.

For data set [2], the target named is Cytochrome P450 2E1 (Oryctolagus cuniculus) (UniProt P08682). Briefly: Mechanism based inhibition of rabbit cytochrome P450 CYP2E1 measured by 7-EFC O-deethylation activity. The note with it: probe 7-EFC (O-deethylation).
Chain of Cytochrome P450 2E1 (Oryctolagus cuniculus) (P08682 whole entry, looked up): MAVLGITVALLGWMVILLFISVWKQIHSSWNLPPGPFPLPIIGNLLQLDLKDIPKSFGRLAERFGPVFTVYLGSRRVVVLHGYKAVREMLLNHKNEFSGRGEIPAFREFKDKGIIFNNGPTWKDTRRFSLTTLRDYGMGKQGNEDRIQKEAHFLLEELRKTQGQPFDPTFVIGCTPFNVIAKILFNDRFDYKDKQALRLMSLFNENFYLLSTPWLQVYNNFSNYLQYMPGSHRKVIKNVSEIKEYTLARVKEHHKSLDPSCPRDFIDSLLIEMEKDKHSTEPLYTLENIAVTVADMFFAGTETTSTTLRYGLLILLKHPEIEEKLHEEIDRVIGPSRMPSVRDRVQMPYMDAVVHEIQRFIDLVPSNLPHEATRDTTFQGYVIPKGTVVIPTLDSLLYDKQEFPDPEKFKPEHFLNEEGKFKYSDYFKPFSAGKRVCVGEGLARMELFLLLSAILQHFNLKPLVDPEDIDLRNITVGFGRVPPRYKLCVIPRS
The target in data set [3] is T2, Cytochrome P450 2B4 (Oryctolagus cuniculus, UniProt P00178).
T2 sequence (P00178 whole entry): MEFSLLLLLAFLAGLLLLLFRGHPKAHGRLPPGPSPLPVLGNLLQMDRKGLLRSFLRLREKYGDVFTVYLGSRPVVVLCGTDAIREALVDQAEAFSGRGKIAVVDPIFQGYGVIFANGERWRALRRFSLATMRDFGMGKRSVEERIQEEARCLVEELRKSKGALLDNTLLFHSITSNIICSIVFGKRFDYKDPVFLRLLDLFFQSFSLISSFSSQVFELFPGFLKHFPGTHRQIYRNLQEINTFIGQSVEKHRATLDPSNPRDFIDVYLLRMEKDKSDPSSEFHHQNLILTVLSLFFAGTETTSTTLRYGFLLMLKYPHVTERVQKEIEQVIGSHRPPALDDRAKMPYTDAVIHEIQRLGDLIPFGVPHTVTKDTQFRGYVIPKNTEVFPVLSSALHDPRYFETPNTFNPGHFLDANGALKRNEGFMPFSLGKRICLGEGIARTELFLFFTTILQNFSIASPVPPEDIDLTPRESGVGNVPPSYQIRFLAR
Briefly: (§1) Mechanism based inhibition of rabbit cytochrome P450 CYP2B4 measured by 7-EFC O-deethylation activity. Format: ADME.

The target of data set [4] is T3, CYP2B4 (Oryctolagus cuniculus, UniProt P00178).
T3 sequence (P00178 whole entry): T2 sequence (P00178 whole entry)
The description is as §1. Format: ADME. The note with it: rabbit, probe 7-EFC (O-deethylation).

Data set [5] deals with T4, Cytochrome P450 3A4 (Homo sapiens, UniProt P08684). Briefly: Mechanism based inhibition of human cytochrome P450 3A4 measured by testosterone 6-beta hydroxylation. The format is ADME.
T4 sequence (P08684 whole entry): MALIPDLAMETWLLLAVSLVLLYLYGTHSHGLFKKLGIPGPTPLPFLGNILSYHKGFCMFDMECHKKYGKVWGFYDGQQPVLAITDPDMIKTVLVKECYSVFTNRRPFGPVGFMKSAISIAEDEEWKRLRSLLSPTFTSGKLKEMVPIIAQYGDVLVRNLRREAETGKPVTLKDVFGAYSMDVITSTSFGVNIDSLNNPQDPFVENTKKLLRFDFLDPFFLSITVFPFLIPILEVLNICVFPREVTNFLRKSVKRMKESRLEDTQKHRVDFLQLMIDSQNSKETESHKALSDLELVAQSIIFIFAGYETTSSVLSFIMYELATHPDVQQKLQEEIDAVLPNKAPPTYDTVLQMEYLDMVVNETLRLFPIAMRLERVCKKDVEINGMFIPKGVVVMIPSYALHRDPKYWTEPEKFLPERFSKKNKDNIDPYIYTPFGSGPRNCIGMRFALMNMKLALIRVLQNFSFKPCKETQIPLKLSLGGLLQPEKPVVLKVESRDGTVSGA
For data set [6], the target named is T4, Cytochrome P450 3A4. Briefly: (§2) Mechanism based inhibition of human cytochrome P450 3A4 measured by nifedipine oxidation, omeprazole 3-hydroxylation and omeprazole sulfoxydation. Format: ADME.
Data set [7] has as its target T4, Cytochrome P450 3A4. Briefly: Mechanism based inhibition of human cytochrome P450 3A4 measured by lovastatin 6'-beta hydroxylase activity. The format is ADME.
Data set [8] concerns the target Cytochrome P450 2D6 (Homo sapiens, UniProt P10635). Briefly: (§3) Mechanism based inhibition of human cytochrome P450 2D6 measured by dextromethorphan O-demethylation. Format: ADME.
The target of data set [9] is CYP2D6 (Homo sapiens, UniProt P10635). Described as §3. Format: ADME. As to conditions: human, probe dextromethorphan.
Chain of CYP2D6 (P10635 whole entry): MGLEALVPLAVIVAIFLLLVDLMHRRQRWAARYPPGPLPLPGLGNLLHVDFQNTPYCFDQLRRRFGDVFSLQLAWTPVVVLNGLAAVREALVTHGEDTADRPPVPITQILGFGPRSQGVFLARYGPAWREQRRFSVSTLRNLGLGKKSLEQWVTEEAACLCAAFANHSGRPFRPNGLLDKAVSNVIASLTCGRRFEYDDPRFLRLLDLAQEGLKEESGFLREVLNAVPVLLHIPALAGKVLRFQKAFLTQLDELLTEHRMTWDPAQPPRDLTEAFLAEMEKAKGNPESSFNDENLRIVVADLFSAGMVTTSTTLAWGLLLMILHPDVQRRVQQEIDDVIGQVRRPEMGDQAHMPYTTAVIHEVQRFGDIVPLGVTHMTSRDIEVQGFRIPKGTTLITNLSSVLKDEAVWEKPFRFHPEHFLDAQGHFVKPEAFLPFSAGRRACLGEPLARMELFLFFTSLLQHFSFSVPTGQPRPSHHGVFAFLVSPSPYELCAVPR
The target of data set [10] is Cytochrome P450 3A5 (Homo sapiens, UniProt P20815). Briefly: Mechanism based inhibition of human cytochrome P450 3A5. Format: ADME.
Chain of Cytochrome P450 3A5 (P20815 whole entry): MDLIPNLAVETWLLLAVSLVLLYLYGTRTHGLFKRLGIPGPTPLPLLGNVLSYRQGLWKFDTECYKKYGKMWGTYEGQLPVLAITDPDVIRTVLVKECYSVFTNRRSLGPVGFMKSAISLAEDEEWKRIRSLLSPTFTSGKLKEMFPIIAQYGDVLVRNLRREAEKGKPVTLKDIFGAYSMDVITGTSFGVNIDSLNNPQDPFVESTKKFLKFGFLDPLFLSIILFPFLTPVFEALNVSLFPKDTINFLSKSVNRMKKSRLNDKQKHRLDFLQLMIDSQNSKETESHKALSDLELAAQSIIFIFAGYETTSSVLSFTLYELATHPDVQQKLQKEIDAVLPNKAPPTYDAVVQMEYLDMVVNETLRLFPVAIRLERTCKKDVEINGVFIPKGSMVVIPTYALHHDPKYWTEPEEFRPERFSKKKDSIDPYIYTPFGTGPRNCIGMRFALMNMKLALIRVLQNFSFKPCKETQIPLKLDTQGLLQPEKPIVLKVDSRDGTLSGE
The target of data set [11] is T5, CYP2B1 (Rattus norvegicus, UniProt P00176).
T5 sequence (P00176 whole entry): T1 sequence (P00176 whole entry)
Briefly: (§4) Mechanism based inhibition of rat cytochrome P450 CYP2B1 measured by 7-EFC O-deethylation activity. Format: ADME. As to conditions: rat, probe 7-EFC (O-deethylation).

Data set [12] has as its target T1, Cytochrome P450 2B1. Described as §4. Format: ADME.
For data set [13], the target named is T1, Cytochrome P450 2B1. Briefly: Mechanism based inhibition of rat cytochrome P450 CYP2B1. Format: ADME. As to conditions: rat.
Data set [14] addresses T4, Cytochrome P450 3A4. Briefly: (§5) Mechanism based inhibition of human cytochrome P450 3A4. The format is ADME.
Data set [15] deals with T6, CYP3A4 (Homo sapiens, UniProt P08684). Described as §5. The format is ADME. As to conditions: human.
T6 sequence (P08684 whole entry): as the sequence (P08684 whole entry) above
The target in data set [16] is T6, CYP3A4. The description is as §2. The format is ADME. The note with it: human.
For data set [17], the target named is T4, Cytochrome P450 3A4. Briefly: Mechanism based inhibition of human cytochrome P450 3A4, partition ratio. The format is ADME.

Chain of Cytochrome P450 2D6 (P10635 whole entry): as the sequence (P10635 whole entry) above

On to `C#Cc1ccc2ccc(=O)oc2c1`, for which the partition_ratio in data set [1] came to 25.
For the compound `C#CC(C)(C)C`, the kinact (commonly the maximal first-order rate at which the target is inactivated) was 0.00333 s⁻¹ in data set [2] and 0.00383 s⁻¹ in data set [4]. In data set [3], this compound showed a Ki of 75 µM.
As for `C/C(=C\COc1c2ccoc2cc2oc(=O)ccc12)CCC(OC(C)(C)C(O)CC/C(C)=C/COc1c2ccoc2cc2oc(=O)ccc12)C(C)(C)O` (configuration not stated) [FC726], in data set [5], the mechanism based inhibition entry was “Cytochrome P450 mechanistic inhibitor: PMID 10859150”. In [6], this compound returned a Ki of 0.13 µM.
`CN1CCN(C(=O)N[C@@H](Cc2ccccc2)C(=O)N[C@H](/C=C/S(=O)(=O)c2ccccc2)CCc2ccccc2)CC1` [K-777]: in data set [7], the mechanism based inhibition result was “Cytochrome P450 mechanistic inhibitor: PMID 11038163”.
On to `CCN(CC)CCNC(=O)c1cc(Cl)c(N)cc1OC` [METOCLOPRAMIDE], for which the Ki in data set [8] is 0.96 µM. In data set [9], the kinact is 0.000433 s⁻¹.
As to `CC(C)(C)NC(=O)[C@@H]1CN(Cc2cccnc2)CCN1C[C@@H](O)C[C@@H](Cc1ccccc1)C(=O)N[C@H]1c2ccccc2C[C@H]1O.O`, the mechanism based inhibition result in data set [10] is recorded as “Cytochrome P450 mechanistic inhibitor: PMID 15523003”.
For the compound `S=C=NCc1ccccc1` [BENZYL ISOTHIOCYANATE], in data set [1], the partition_ratio is 9. For the same compound, the kinact in data set [11] was 0.011 s⁻¹. The compound also had a Ki in data set [12] of 5.8 µM.
Consider `CC(C)(OO)c1ccccc1` [CUMENE HYDROPEROXIDE], for which, in data set [13], the mechanism based inhibition result is “Cytochrome P450 mechanistic inhibitor: PMID 8416964”.
For `C/C(=C\COc1c2ccoc2cc2oc(=O)ccc12)CCC(O)C(C)(C)O` (configuration not stated) [DIHYDROXYBERGAMOTTIN], the Ki in data set [14] worked out at 59 µM; in data set [6] it was 5.56 µM. The kinact is 0.00267 s⁻¹ in data set [15] and 0.001 s⁻¹ in data set [16]. Besides, the mechanism based inhibition entry in [5] is given as “Cytochrome P450 mechanistic inhibitor: PMID 10859150”.
Regarding `C=C(C)C(CC/C(C)=C/COc1c2ccoc2cc2oc(=O)ccc12)OC(C)(C)C(O)CC/C(C)=C/COc1c2ccoc2cc2oc(=O)ccc12` (configuration not stated), in data set [5], the mechanism based inhibition result is recorded as “Cytochrome P450 mechanistic inhibitor: PMID 10859150”. The Ki in [6] came out at 0.31 µM. Besides, the kinact in [16] was 0.000833 s⁻¹.
As to `CC(C)Nc1cccnc1N1CCN(C(=O)c2cc3cc(NS(C)(=O)=O)ccc3[nH]2)CC1` [DELAVIRDINE], the Partition ratio in data set [17] is recorded as 41.
In turn, `CCc1c2c(nc3ccc(O)cc13)-c1cc3c(c(=O)n1C2)COC(=O)[C@]3(O)CC` [7-ETHYL-10-HYDROXYCAMPTOTHECIN] yielded a Ki in [14] of 26 µM. In [15], the kinact was 0.00167 s⁻¹.
Consider `C#CCN(C)CCCOc1ccc(Cl)cc1Cl` [CLORGILINE], for which the kinact in [11] is 0.00467 s⁻¹. In data set [12], this compound yielded a Ki of 1.5 µM.
